Results taken from PubChem BioAssay AID1645864 (Buhrlage Lab, Dana-Farber Cancer Institute and Novartis …, 2021).
pIC50: −log10 of the molar value. The source made the active and inactive calls.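 Rule for the calls: active = maximal inhibition of USP17 at or above 30% in the confirmation dose-response, a value not among the printed readouts; inactive = the rest.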

Target: Ubiquitin carboxyl-terminal hydrolase 17-like protein 5 (Homo sapiens) (UniProt A8MUK1)
Assay: ubiquitin-specific protease 17 DUB inhibitors, concentration-effect assay, cell-free, verification of initial screening actives (AID 1645864)
Conditions: purified USP17, ubiquitin-rhodamine cleavage fluorescence, 3 h

Ubiquitin carboxyl-terminal hydrolase 17-like protein 5 (Homo sapiens), sequence (A8MUK1 whole entry, looked up): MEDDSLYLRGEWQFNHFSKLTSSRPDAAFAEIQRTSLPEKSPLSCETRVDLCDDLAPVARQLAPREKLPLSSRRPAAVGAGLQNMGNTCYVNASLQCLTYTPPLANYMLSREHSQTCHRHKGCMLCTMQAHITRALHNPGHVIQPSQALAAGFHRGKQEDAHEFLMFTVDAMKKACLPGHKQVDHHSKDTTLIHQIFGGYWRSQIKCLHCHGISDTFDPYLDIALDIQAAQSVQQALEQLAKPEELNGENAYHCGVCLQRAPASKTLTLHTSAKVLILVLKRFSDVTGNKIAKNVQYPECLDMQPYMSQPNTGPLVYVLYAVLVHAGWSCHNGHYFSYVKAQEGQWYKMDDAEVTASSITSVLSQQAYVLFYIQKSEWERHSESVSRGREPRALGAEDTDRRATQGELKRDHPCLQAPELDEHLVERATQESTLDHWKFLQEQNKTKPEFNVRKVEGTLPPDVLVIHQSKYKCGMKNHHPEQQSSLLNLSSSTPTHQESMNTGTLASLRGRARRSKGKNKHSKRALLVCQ

SMILES	pIC50	IC50
O=C(Nc1ccc2c(c1)OCO2)c1cc(-c2cccnc2)n(-c2ccccc2)n1	4.32	–
N#Cc1cccc(NC(=O)Cn2cccc(-c3nc(-c4ccccc4)no3)c2=O)c1	–	> 50 µM (inactive)
CCOc1ccc2[nH]c3c(=O)n(CCc4ccc(OC)cc4)cnc3c2c1	5.36	–
COc1ccc(CNc2nn3c(-c4cncc(OC)c4)cnc3s2)cc1	5.40	–
Cn1c(-c2nnc(SCC(=O)Nc3ccccc3F)o2)cc2ccccc21	4.67	–
O=C(c1ccsc1)N1CCC2(C1)Nc1cccnc1NC2=NC1CCCC1 (stereo not given)	–	> 50 µM (inactive)
O=C(Cn1ccc2ccc(N3CCOCC3)nc21)NCc1ccccc1F	–	> 50 µM (inactive)
O=C(CSc1nnnn1-c1ccccc1)Nc1ccccc1	4.43	–
O=S(c1ccc2ccccc2c1)c1cnns1 (stereo not given)	–	> 50 µM (inactive)
COc1ccc2cc1Oc1cc(ccc1OC)C(O)C13SSC4(C(=O)N1C)C(O)C1=COC=CC(OC2=O)C1N4C3=O (stereo not given)	–	> 50 µM (inactive)
COc1cc(-c2cc(C(=O)Nc3cc(C)[nH]n3)c3ccccc3n2)cc(OC)c1OC	4.37	–
Cc1ccc(C)c(NS(=O)(=O)c2cc(-c3cnc(C4CC4)o3)ccc2C)c1	4.37	–
Cn1c(=O)sc2cc(NC(=O)c3ccc(Br)cc3)ccc21	5.74	–
CCOC(=O)[C@@H]1[C@@H](c2ccccc2)CN2CCN(C(=O)c3cnccn3)C[C@H]12	–	> 50 µM (inactive)
Cn1c(SCc2ccccc2)nnc1-c1csc(-c2ccccc2)n1	4.41	–
COc1ccc(OC)c(-c2cc(C(=O)Nc3c(C)nn(Cc4ccccc4)c3C)no2)c1	–	> 50 µM (inactive)
O=c1ccc(-c2noc(Cc3c(F)cccc3Cl)n2)c[nH]1	–	> 50 µM (inactive)
O=C1c2c(O)c(Cl)cc3c2[C@@]2(Oc4cc(Cl)c(O)c5c4[C@]3(O2)[C@@H]2O[C@@H]2C5=O)[C@@H]2O[C@H]12	6.39	–
Cc1cc(C)cc(NC(=O)CSc2ccc(-c3ccncc3)nn2)c1	–	> 50 µM (inactive)

SMILES	pIC50	IC50
Cc1oc(C2CC2)cc1C(=O)N1CCC2(CC1)CC1(CO2)Nc2ccccc2-n2cccc21 (stereo not given)	–	> 50 µM (inactive)
COc1ccc(-c2nonc2NC(=O)C(c2ccccc2)c2ccccc2)cc1OC	–	> 50 µM (inactive)
COc1ccc(-c2nc(SCC(=O)Nc3ccc(C(C)=O)cc3)n[nH]2)cc1	4.97	–
CC(=O)c1ccc(NC(=O)CC2C(=O)Nc3nc4ccccc4n32)cc1 (stereo not given)	4.49	–
Cc1c(Cl)cccc1NC(=O)Cn1ccc2ccccc2c1=O	5.65	–
O=C(Nc1cccc2ccccc12)N1CCC(c2nc3c(nnn3Cc3ccc(F)cc3)c(=O)[nH]2)CC1	4.54	–
COc1cc(Cl)ccc1Oc1ncnc2sc(C)c(C)c12	–	> 50 µM (inactive)
COc1ccc(C(=O)CSc2nnc(-c3cccnc3)n2-c2ccccc2)cc1	–	> 50 µM (inactive)
CC(=O)NCc1nc(-c2ccc3c(c2)nc(C)c(=O)n3C2CCCC2)no1	–	> 50 µM (inactive)
COc1ccc(Nc2nc3c(S(=O)(=O)c4ccc(C)cc4)nnn3c3ccsc23)c(OC)c1	5.58	–
O=C(CCc1nnc2n(Cc3ccccc3)c(=O)c3ccccc3n12)N1CCN(c2ccccn2)CC1	4.95	–
COc1cc(-c2nc(C(N)=O)c3[nH]c(=O)n(-c4ccc(C)cc4)c3n2)cc(OC)c1OC	5.71	–
Cc1nc(CN2CCn3c(Cn4cccn4)cnc3C2C)cs1 (stereo not given)	–	> 50 µM (inactive)
O=C(c1ccco1)N1CCC2(CC1)CC1(CO2)Nc2ccccc2-n2cccc21 (stereo not given)	4.69	–
Cc1cnnn1-c1ccc(C(=O)Nc2cc(Cl)ccc2Cl)cc1	4.53	–
O=C(NC1CCCC1)c1cccc(-c2ccc(N3CCCC3)nc2)c1	5.34	–
COc1c(C)c(C(O)C(C)O)c2[nH]c3ccc(CC=C(C)C)cc3c2c1O (stereo not given)	4.77	–
CCc1nnc(NC(=O)c2nnn(-c3ccccc3Cl)c2C)s1	–	> 50 µM (inactive)
Cc1ccccc1-c1nnc(-c2ccc(C(=O)NCc3ccccc3F)cc2)o1	5.24	–

SMILES	pIC50	IC50
O=C(COC(=O)CCc1ccc(S(=O)(=O)N2CCOCC2)cc1)Nc1ccc2c(c1)OCCO2	–	> 50 µM (inactive)
COc1ccc(C2C(C(=O)Nc3ccccc3OC)=C(C)Nc3nnnn32)cc1Br (stereo not given)	4.44	–
CCOC(=O)C1C(c2ccc(Br)cc2)C2(C(=O)c3ccccc3C2=O)C2C=Cc3ccccc3N12 (stereo not given)	–	> 50 µM (inactive)
CC(=O)c1cccc(NC(=O)c2ccc(-c3csc(C)n3)cc2)c1	–	> 50 µM (inactive)
CCc1ccccc1NC(=O)COc1ccccc1-c1nnc(-c2ccccc2)o1	4.60	–
Cc1nn(C)c2c1[C@@H](c1ccc(F)c(Br)c1)[C@H](NC(=O)c1ccccc1)C(=O)N2	–	> 50 µM (inactive)
CCN1CCN(C(=O)CCCN(c2ccccc2)S(C)(=O)=O)CC1	–	> 50 µM (inactive)
Cc1nn(-c2ccc(F)cc2)cc1-c1noc(C(=O)NCc2ccccn2)n1	4.63	–
N#Cc1ccccc1Cn1c(=O)n(CCCCC(=O)NCCc2ccccc2)c(=O)c2ccccc21	5.00	–
CC(C)CC1NC(=O)C2CCCN2C1=O (stereo not given)	4.43	–
COc1ccc2[nH]c3c(c2c1)CCN1C(=O)N(c2ccccc2C(=O)NCc2ccccc2)C(=O)[C@]31C	4.46	–
CC(=O)c1ccc(NC(=O)C2CCN(c3cncnc3N3CCCC3)CC2)cc1	–	> 50 µM (inactive)
Cc1ccc2[nH]cc(S(=O)(=O)c3ccc(C)c(F)c3)c(=O)c2c1	4.37	–
COc1ccc(-n2c(SCC(=O)c3ccc(F)cc3)nnc2-c2cccnc2)cc1	4.62	–
O=C(CCn1c(=O)c2ccccc2n(Cc2cc(=O)n3ccccc3n2)c1=O)NCCc1ccc(Cl)cc1	4.50	–
Cc1nc(C(=O)N[C@@H](C)C(=O)NCc2ccc3c(c2)OCO3)cc2c1[nH]c1ccccc12	4.56	–
O=C(CSc1ccc(-c2cccc([N+](=O)[O-])c2)nn1)Nc1cccc(F)c1	5.57	–
CCOc1ccc2[nH]c(=O)c(CN(C(=O)c3cccs3)C3CCCC3)cc2c1	4.95	–

The remaining lines, values ahead:

pIC50	IC50	SMILES
4.42	–	O=C(CSc1nc2ccncc2[nH]1)Nc1ccc(Br)cc1F
5.55	–	Cc1sc2ncn3c(=O)n(CC(=O)Nc4ccc(F)c(Cl)c4)nc3c2c1C
4.56	–	O=C(Cn1c(=O)nc(-c2ccccc2)c2ccccc21)NCc1ccc2c(c1)OCO2
5.01	–	CC(C)=CCCC1(C)OC2=C(C(=O)c3cc(O)cc(O)c3C2=O)[C@H]2C=C(C)CC[C@H]21 (stereo not given in full)
5.63	–	COC(=O)c1ccc2c(=O)n(CCCCCC(=O)NCc3cccc(Cl)c3)c(=O)[nH]c2c1
5.75	–	CCOC(=O)N1CCN(S(=O)(=O)c2ccc(C(=O)Nc3ccc(Br)cc3)cc2)CC1
4.54	–	O=C(Nc1ccc(F)cc1)Nc1ccccc1OCc1cc(=O)n2ccccc2n1
5.57	–	O=c1c2ccccc2oc2nc(-c3cccs3)n(-c3ccccc3)c(=O)c12
5.31	–	CCc1cccc(CC)c1NC(=O)COC(=O)c1cc2cccc(OC)c2oc1=O
–	> 50 µM (inactive)	Cc1c(-c2ccccc2)oc2c(C(=O)OCC(=O)Nc3ccccc3F)cccc2c1=O
–	> 50 µM (inactive)	O=C(NC1CCN(Cc2ccccc2)CC1)c1[nH]nc2c1CCc1ccccc1-2
5.38	–	COc1ccccc1Nc1ncc(C(=O)NCCc2ccc(Cl)cc2)c2ccccc12
4.37	–	CC(=O)c1cccc(NC(=O)c2ccc(N3CCCCC3)nn2)c1
–	> 50 µM (inactive)	COc1cccc(/C=C/c2nc(C#N)c(N3CCN(C(=O)c4cccs4)CC3)o2)c1
4.82	–	O=C(C(c1ccccc1)c1ccccc1)N1CCC(c2nc3c(nnn3Cc3c(F)cccc3Cl)c(=O)[nH]2)CC1
4.48	–	Cc1ccc2c(=O)c3c([nH]c2c1C)CCN(CC(=O)NCc1ccc2c(c1)OCO2)C3
–	> 50 µM (inactive)	COc1cc(-c2ccno2)ccc1S(=O)(=O)Nc1ccccc1Cl
–	> 50 µM (inactive)	COc1cc(NC(=O)COC(=O)Cn2cnc3ccccc32)cc(OC)c1
5.42	–	Cc1ccc2nc(NC(=O)CSc3nnc(-c4ccncc4)n3C3CC3)sc2c1
–	> 50 µM (inactive)	O=C(COc1nsnc1N1CCOCC1)Nc1ccccc1F
4.51	–	O=C(Nc1ccc(N2CCOCC2)cc1)c1cc(=O)[nH]c2ccccc12
4.64	–	COc1ccccc1NC(=O)Cn1cc(C(=O)c2ccc(C)cc2)c(=O)c2ccccc21

pIC50	IC50	SMILES
4.36	–	Cc1nc(SCC#N)c2oc3ccccc3c2n1
–	> 50 µM (inactive)	Clc1ccc(C[n+]2cc(-c3ccc(Cl)cc3)n3c2CCC3)cc1
4.96	–	COc1ccc(NC(=O)c2cc(-c3cccnc3)n[nH]2)cc1Cl
–	> 50 µM (inactive)	COc1ccc(C(=O)Nc2ccc(S(=O)(=O)N3CCCCC3)cc2)cc1
–	> 50 µM (inactive)	CC(C)N(C(=O)Cn1c(=O)[nH]c2ccccc21)c1ccccc1
5.40	–	CCOc1ccc(NC(=O)Cn2c(=O)n(CC(=O)NCc3ccc(C)cc3)c(=O)c3sccc32)cc1
4.61	–	COc1cc2c(oc(=O)c3cc(C)cc(OC)c32)c2c([C@@H]3OC(C)[C@@H](O)[C@@](C)(O)C3O)ccc(O)c12 (stereo not given in full)
4.38	–	O=C(/C=C/c1ccc(F)cc1)N1CCC(Cc2ccccc2)CC1
–	> 50 µM (inactive)	O=C(CNc1ccc(F)c(Cl)c1)Nc1ccc2c(c1)OCCO2
5.63	–	CSc1ccccc1C(=O)Nc1sc2c(c1C(N)=O)CCC(C)C2 (stereo not given)
4.40	–	Nc1c(C(=O)NCCc2ccccc2)nnn1-c1ccc(F)cc1
–	> 50 µM (inactive)	CN1CCN(c2ncnc3c2oc2ccc(Cl)cc23)CC1
4.51	–	CC1(C(=O)NC2CCCC2)Cn2c(cc3ccccc32)C(=O)N1c1ccc(F)cc1 (stereo not given)
–	> 50 µM (inactive)	CC(=O)c1ccc(Cc2ncc(C(F)(F)F)cc2Cl)s1
–	> 50 µM (inactive)	CS(=O)(=O)N1CCCN(c2nc3cc(Cl)ccc3n3cccc23)CC1
4.32	–	O=C(CSc1nc2cc(S(=O)(=O)Nc3ccccc3Cl)ccc2o1)Nc1ccc(N2CCOCC2)cc1
–	> 50 µM (inactive)	CN(C)CCc1cc2c(c3c1ccc1ccccc13)OCO2
5.60	–	O=C(NCc1ccccc1Cl)c1ccc(-c2nnc(-c3ccccc3)o2)cc1
–	> 50 µM (inactive)	CSc1nc(Cc2ccc(Cl)cc2)nc2ccccc12
4.50	–	Cc1ccc(-c2c(C(=O)Nc3ccc(S(N)(=O)=O)cc3)oc(=O)c3ccccc23)cc1
–	> 50 µM (inactive)	COCCNC(=O)c1ccn(-c2ccc3ccc(-c4cnn(C)c4)cn23)n1
–	> 50 µM (inactive)	CC(C(=O)NCc1ccc(F)cc1)n1cccc1C(=O)c1ccccc1 (stereo not given)
